The text below walks through data of the NIST ThermoML archive (doi:10.1016/j.fluid.2014.04.025).

Each structure is given as a SMILES string. Numbers after ± are expanded uncertainties.

The conditions of data set [1]: Liquid; for mass density: 293.15 K, 101.33 kPa, Densimeter; for Normal boiling temperature: Ebulliometric method (Recirculating still).
Data set [2] can be described thus: refractive index (Na D-line) (dimensionless). Conditions: 293.15 K; 101.33 kPa; Liquid; Standard Abbe refractometry.

With `COCCO` [2-methoxyethan-1-ol], in data set [1], the mass density – broadly, the mass of a sample divided by its volume – is 964.74 ± 0.12 kg/m3 and the Normal boiling temperature worked out at 124.48 ± 0.2 °C. For the same compound, the refractive index (usually a measure of how strongly the sample bends light) in data set [2] turned out to be 1.40234 ± 0.00034.

`C[S+](C)[O-]` [dimethyl sulfoxide]: in data set [1], the mass density was 1100.36 ± 0.14 kg/m3 and the Normal boiling temperature worked out at 189.03 ± 0.2 °C. Further, the refractive index in data set [2] is 1.47987 ± 0.00034.

Regarding `Cc1ccccc1` [toluene], in data set [1], the mass density was 867.02 ± 0.11 kg/m3 and the Normal boiling temperature is 110.58 ± 0.2 °C. Further, the refractive index in data set [2] stood at 1.49678 ± 0.00033.
